{"source": "patent US12215135B2", "about": "“PDL2 compounds” (IO BIOTECH APS, priority 2016, dated 2025)", "key": {"[1]": {"test_system": "Tumor infiltrating T-lymphocytes from two melanoma patients", "test": "Intracellular cytokine staining of tumor infiltrating T-lymphocytes", "assay_type": "cell-based, human", "settings": "TILs from two melanoma patients", "procedure": "(§1) We collected blood samples from patients with melanoma, renal cell carcinoma, non-hodgkin lymphoma, and ovarian cancer and from healthy. Samples were collected a minimum of four weeks after the termination of any kind of anti-cancer therapy. Peripheral blood mononuclear cells (PBMCs) were isolated using Lymphoprep™ (Alere A S, cat. 1114547) separation, HLA-typed and frozen in FCS with 10% DMSO (Sigma-Aldrich, cat. D5879-100ML). Tumor Infiltrating lymphocytes (TIL) from lesions from two melanoma patients were expanded using high dose IL-2 (6000 units/ml). The protocol was approved by the Scientific Ethics Committee for The Capital Region of Denmark and conducted in accordance with the provisions of the Declaration of Helsinki. Before study entry, a written informed consent from the patients was obtained.\nTo detect cell subpopulations that produced cytokines, we stimulated a PD-L1-specific T-cell culture (previously described (1)) and a PD-L2-specific T-cell culture with 5 μg/ml of relevant or irrelevant peptide, and incubated the cells for 5 h at 37° C. with 5% CO2. After 1 h of incubation, we added GolgiPlug (BD), diluted at 1:200. […] Stained cells were analyzed with a BD FACSCanto II flow cytometer. […]"}, "[2]": {"test_system": "PBMCs from patients with cancer and healthy donors", "test": "IFN-γ ELISPOT assay on PBMCs", "assay_type": "cell-based, human", "settings": "for CD4+ T cell responses against long peptides, IFN-γ ELISPOT assay: PBMCs from 11 patients with cancer and 11 healthy donors; for specific T-cell responses, IFN-γ ELISPOT in vitro assay: PBMCs from HLA-A2+ patients with cancer, stimulated once in vitro with peptide; for IFN-γ ELISPOT response, significance according to the DFR test / IFN-γ ELISPOT response, significance according to the DFR×2 rule: 5 selected PBMCs, patients with malignant melanoma; for immune responses, IFN-γ ELISPOT assay: PBMCs from healthy donors", "procedure": "as §1\n(§2) The IFN-γ and TNF-α ELISPOT technique was performed as described previously (3). We performed the assays according to the guidelines provided by the cancer immunotherapy immunoguiding program (CIP; cimt.eu/cimt/files/dl/cip guidelines.pdf). Unless stated otherwise, PBMCs were stimulated once in vitro with peptide prior to analysis to extend the sensitivity of the assay. To measure T-cell reactivity, nitrocellulose-bottomed 96-well plates (MultiScreen MSIPN4W; Millipore) were coated overnight at room temperature or two days at 4° C. with the relevant antibodies. The wells were washed and blocked with X-vivo medium for 2 h. The PBMCs were added at different cell concentrations in triplicate wells, with PD-L2 peptide or with control peptide, and incubated overnight. The following day, the wells were washed, and the relevant biotinylated secondary antibody (Mabtech) was added, followed by the avidin-enzyme conjugate (AP-Avidin; Calbiochem/Invitrogen Life Technologies); finally, we added the enzyme substrate, NBT/BCIP (Invitrogen Life Technologies) for visualization. The spots on the developed ELISPOT plates were analyzed on a CTL ImmunoSpot S6 Ultimate-V analyzer with Immunospot software, v5.1.\nAn ELISPOT response was defined, based on the guidelines and recommendations provided by CIP and Moodie et al (5). The non-parametric distribution-free resampling (DFR) and more conservative DFR×2 statistical test were used for a formal comparison between antigen-stimulated wells and negative-control wells. The ELISPOT assays were performed at least in triplicate."}, "[3]": {"test_system": "TAP deficient T2 cells pulsed with peptide", "test": "51chromium-release cytotoxicity assay, PD-L2-specific T-cell cultures against peptide-pulsed T2 cells", "assay_type": "cell-based, human", "settings": "cultures A and B", "procedure": "(§3) PBMCs from a patient with melanoma were stimulated with irradiated (30 Gy) autologous DCs, which had been pulsed with PD-L205 (PD-L2(16-25)) peptide (PBL:DC ratio 10:1) and IL-7 (40 U/ml) were added (PeproTech, London, UK). The next day, IL-12 (20 U/ml) was added (PeproTech, London, UK). At weekly intervals, we performed three identical stimulations, with irradiated autologous DCs loaded with PDL205 (PD-L2(16-25)), and IL-12 (20 U/ml) added the next day. Then, at weekly intervals, we stimulated the culture three more times with irradiated autologous PBLs loaded with PDL205 (PD-L2(16-25)) (culture:PBL ratio 1:1), but the next day, we added IL-2 (120 U/ml; Proleukin, Novartis).\n(§4) The culture was enriched for specific T cells, either by staining with an anti-CD137-PE antibody (BD-Biosciences) or by employing a TNF-α-enrichment and detection kit (according to the procedure by Miltenyi Biotec). Next, we performed magnetic cell isolation with a MACs microbead column (according to the procedure by Miltenyi Biotec). The sorted cells were rapidly expanded by incubating with 0.6 μg anti-CD3 antibody (eBioscience, clone OKT3) and a high dose of IL-2 (Proleukin, Novartis).\n(§5) Cytotoxicity Assay PD-L1-specific and PD-L2-specific T-cell-mediated cytotoxicity was measured with conventional 51chromium-release assays, as previously described (4). Target cells were TAP deficient T2 cells, pulsed with HIV-1 pol476-484 ([…], SEQ ID NO: 26), PD-L101 (PD-L1(15-23)), or PD-L205 (PD-L2(16-25)). siRNA-Mediated PD-L2 Silencing of DCs"}, "[4]": {"test_system": "PD-L2 T cell culture-A and -B (PD-L205-specific T cells)", "test": "Intracellular cytokine staining of PD-L2-specific T-cell cultures", "assay_type": "cell-based, human", "procedure": "as §3, §4\n(§6) To detect cell subpopulations that produced cytokines, we stimulated a PD-L1-specific T-cell culture (previously described (1)) and a PD-L2-specific T-cell culture with 5 μg/ml of relevant or irrelevant peptide, and incubated the cells for 5 h at 37° C. with 5% CO2. After 1 h of incubation, we added GolgiPlug (BD), diluted at 1:200. After 4 h, cells were washed twice with PBS, stained with fluorochrome-conjugated antibodies specific for surface markers (CD3-APC-H7, CD4-PerCP/FITC, CD8-Pacific Blue/PerCP, and Horizon Fixable Viability Stain 510, all from BD). Cells were washed, fixed, and permeabilized with Fixation/Permeabilization and Permeabilization Buffer (eBioscience), according to the manufacturer's instructions. Cells were subsequently stained with fluorochrome-conjugated antibodies to visualize intracellular cytokines. The following antibody-fluorochrome combinations were used: IFNγ-PE-CY7/APC (eBioscience) and TNFα-APC/BV421 (eBioscience). Relevant isotype controls were used to enable correct compensation and confirm antibody specificity. Stained cells were analyzed with a BD FACSCanto II flow cytometer. Analysis was performed with BD FACSDiva Software."}, "[5]": {"test_system": "TAP-deficient T2 cells pulsed with peptide", "test": "51Cr release assay, PD-L101-specific T-cell culture against peptide-pulsed T2 cells", "assay_type": "cell-based, human", "settings": "different effector-to-target ratios", "procedure": "as §5"}, "[6]": {"test_system": "PD-L2 T cell culture-A and -B (PD-L205-specific T cells)", "test": "ELISPOT assay on PD-L2-specific T-cell cultures", "assay_type": "cell-based, human", "settings": "both PD-L2 specific cultures", "procedure": "as §2, with “v5.1. […]” for “v5.1.”"}, "[7]": {"test_system": "PBMCs from patients with malignant melanoma", "test": "TNF-α ELISPOT assay on PBMCs", "assay_type": "cell-based, human", "settings": "5 selected PBMCs", "procedure": "as §1\nThe IFN-γ and TNF-α ELISPOT technique was performed as described previously (3). We performed the assays according to the guidelines provided by the cancer immunotherapy immunoguiding program (CIP; cimt.eu/cimt/files/dl/cip guidelines.pdf). Unless stated otherwise, PBMCs were stimulated once in vitro with peptide prior to analysis to extend the sensitivity of the assay. […] The spots on the developed ELISPOT plates were analyzed on a CTL ImmunoSpot S6 Ultimate-V analyzer with Immunospot software, v5.1. […]"}, "T cells": {"test_system": "T cells", "settings": "previously described, refs (1), (2), (6); cited from earlier work"}, "[8]": {"test_system": "PD-L101-specific CD8+ T cells", "test": "Intracellular cytokine staining of PD-L101-specific T-cell culture", "assay_type": "cell-based, human", "procedure": "as §6"}}, "note": "“Also recorded” adds a separate entry of the source."}
{"sequence": "MIFLLLMLSLELQLHQIAALFTVTV (Peptide fragment of human PDL2) [PD-L2long2]", "values": [{"measurement": "IFN-γ CD4+ T-cell responses, intracellular cytokine staining", "setting": "[1]", "result": "elicited IFN-γ CD4+ T-cell responses"}, {"measurement": "CD4+ T cell responses against long peptides, IFN-γ ELISPOT assay", "setting": "[2]", "result": "frequent but moderate responses"}, {"measurement": "IFN-γ responses, in vitro ELISPOT assay", "setting": "[2]; PBMCs from four non-hodgkin lymphoma patients, DFR rule", "result": "All four patients showed responses that were statistically significant"}]}
{"sequence": "FIFIATVIAL (Peptide fragment of human PDL2) [PD-L215, HLA-A2 restricted peptide fragment of human PD-L2]", "values": [{"measurement": "specific T-cell responses, IFN-γ ELISPOT in vitro assay", "setting": "[2]", "result": "detected immune responses"}]}
{"sequence": "SLELQLHQIAALFTVTVPKEL (Peptide fragment of human PDL2) [PD-L2long1]", "values": [{"measurement": "CD4+ T cell responses against long peptides, IFN-γ ELISPOT assay", "setting": "[2]", "result": "frequent but moderate responses"}]}
{"sequence": "QIAALFTVTV (Peptide fragment of human PDL2) [PD-L205, HLA-A2 restricted peptide fragment of human PD-L2]", "values": [{"measurement": "recognition and lysis of peptide-pulsed T2 cells by PD-L2 (PD-L205)-specific T-cell cultures", "setting": "[3]", "result": "could indeed recognize"}, {"measurement": "recognition and lysis of peptide-pulsed T2 cells by PD-L2 (PD-L205)-specific T-cell cultures", "setting": "[3]; listed as PDL205", "result": "recognized and lysed"}, {"measurement": "CD4+ T cells with TNF-α release in response to peptide", "setting": "[4]; PD-L2 T cell culture-A", "result": "about 4.5%"}, {"measurement": "CD8+ T cells with TNF-α release in response to peptide", "setting": "[4]; PD-L2 T cell culture-A", "result": "~1", "unit": "%"}, {"measurement": "CD4+ T cells with TNF-α release in response to peptide", "setting": "[4]; PD-L2 T cell culture-B", "result": "about 7%"}, {"measurement": "CD8+ T cells with TNF-α release in response to peptide", "setting": "[4]; PD-L2 T cell culture-B", "result": "~2", "unit": "%"}, {"measurement": "lysis of peptide-pulsed T2 cells by PD-L101-specific T cells", "setting": "[5]", "result": "no cytotoxicity was observed"}, {"measurement": "IFN-γ and TNF-α T cell responses, ELISPOT", "setting": "[6]", "result": "T cell responses were observed"}, {"measurement": "IFN-γ ELISPOT response, significance according to the DFR test", "setting": "[2]", "result": "statistically significant"}, {"measurement": "IFN-γ ELISPOT response, significance according to the DFR×2 rule", "setting": "[2]", "result": "statistically significant"}, {"measurement": "specific T-cell responses, IFN-γ ELISPOT in vitro assay", "setting": "[2]", "result": "detected immune responses"}, {"measurement": "ex vivo IFN-γ ELISPOT response", "setting": "[2]; PBMCs from four donors, directly ex vivo without prior in vitro peptide stimulation, DFR rule", "result": "one of these donors showed an ex vivo IFN-γ response that was statistically significant"}, {"measurement": "immune responses, IFN-γ ELISPOT assay", "setting": "[2]", "result": "strong immune responses"}, {"measurement": "epitope dominance in eliciting immune responses", "setting": "[2]; in general, across donors", "result": "dominant PD-L2 epitope; also recorded: strongest responses"}, {"measurement": "TNF-α ELISPOT response, significance according to the DFR test", "setting": "[7]", "result": "statistically significant"}]}
{"sequence": "LLNAFTVTV (PD-L101 (PDL1 peptide))", "values": [{"measurement": "recognition and lysis of peptide-pulsed T2 cells by PD-L2 (PD-L205)-specific T-cell cultures", "setting": "[3]", "result": "did not kill"}, {"measurement": "lysis of peptide-pulsed T2 cells by PD-L101-specific T cells", "setting": "[5]", "result": "only lysed T2-cells pulsed with PD-L101"}, {"measurement": "T cell response elicited by epitope", "setting": "T cells", "result": "strong T cell response"}, {"measurement": "cytokine release (IFN-γ and TNF-α) from PD-L101-specific CD8+ T cells", "setting": "[8]", "result": "released cytokines only in response to PD-L101"}, {"measurement": "spontaneous T-cell responses, IFN-γ ELISPOT test", "setting": "[2]; PBMCs from patients with cancer that responded to PD-L205", "result": "did not detect any immune response"}]}
{"sequence": "LLLMLSLEL (Peptide fragment of human PDL2) [PD-L201, HLA-A2 restricted peptide fragment of human PD-L2]", "values": [{"measurement": "IFN-γ ELISPOT response, significance according to the DFR test", "setting": "[2]", "result": "statistically significant"}, {"measurement": "IFN-γ ELISPOT response, significance according to the DFR×2 rule", "setting": "[2]", "result": "statistically significant"}, {"measurement": "specific T-cell responses, IFN-γ ELISPOT in vitro assay", "setting": "[2]", "result": "detected immune responses"}, {"measurement": "immune responses, IFN-γ ELISPOT assay", "setting": "[2]", "result": "weaker responses"}, {"measurement": "TNF-α ELISPOT response, significance according to the DFR test", "setting": "[7]", "result": "statistically significant"}]}
{"sequence": "ILKEPVHGV (HIV-1 (HLA-A2 high affinity binding epitope)) [HIV-1 pol476-484]", "values": [{"measurement": "recognition and lysis of peptide-pulsed T2 cells by PD-L2 (PD-L205)-specific T-cell cultures", "setting": "[3]", "result": "did not recognize; also recorded: did not kill"}, {"measurement": "lysis of peptide-pulsed T2 cells by PD-L101-specific T cells", "setting": "[5]", "result": "no cytotoxicity was observed"}]}
